According to patent publication US11192891B2, “Diazaspiro ROCK inhibitors” (BRISTOL-MYERS SQUIBB COMPANY, priority 2017, dated 2021):
pIC50: −log10 of the molar value.

Molecular target: ROCK2 (Homo sapiens, UniProt O75116)
Assay: ROCK kinase inhibition assay, FITC peptide substrate, LABCHIP 3000 readout
Format: biochemical
Details: 5 μM ATP, 1.5 μM peptide substrate
Method: Compounds were dissolved in DMSO so that the final concentration of DMSO was <2%, and the reaction was initiated with Rho kinase variants. After incubation, the reaction was terminated by the addition of EDTA and the phosphorylated and non-phosphorylated peptides separated using a LABCHIP® 3000 Reader (Caliper Life Sciences). […] Compounds were tested in dose-response format, and the inhibition of kinase activity was calculated at each concentration of compound.

ROCK2, sequence (O75116 whole entry, species assumed): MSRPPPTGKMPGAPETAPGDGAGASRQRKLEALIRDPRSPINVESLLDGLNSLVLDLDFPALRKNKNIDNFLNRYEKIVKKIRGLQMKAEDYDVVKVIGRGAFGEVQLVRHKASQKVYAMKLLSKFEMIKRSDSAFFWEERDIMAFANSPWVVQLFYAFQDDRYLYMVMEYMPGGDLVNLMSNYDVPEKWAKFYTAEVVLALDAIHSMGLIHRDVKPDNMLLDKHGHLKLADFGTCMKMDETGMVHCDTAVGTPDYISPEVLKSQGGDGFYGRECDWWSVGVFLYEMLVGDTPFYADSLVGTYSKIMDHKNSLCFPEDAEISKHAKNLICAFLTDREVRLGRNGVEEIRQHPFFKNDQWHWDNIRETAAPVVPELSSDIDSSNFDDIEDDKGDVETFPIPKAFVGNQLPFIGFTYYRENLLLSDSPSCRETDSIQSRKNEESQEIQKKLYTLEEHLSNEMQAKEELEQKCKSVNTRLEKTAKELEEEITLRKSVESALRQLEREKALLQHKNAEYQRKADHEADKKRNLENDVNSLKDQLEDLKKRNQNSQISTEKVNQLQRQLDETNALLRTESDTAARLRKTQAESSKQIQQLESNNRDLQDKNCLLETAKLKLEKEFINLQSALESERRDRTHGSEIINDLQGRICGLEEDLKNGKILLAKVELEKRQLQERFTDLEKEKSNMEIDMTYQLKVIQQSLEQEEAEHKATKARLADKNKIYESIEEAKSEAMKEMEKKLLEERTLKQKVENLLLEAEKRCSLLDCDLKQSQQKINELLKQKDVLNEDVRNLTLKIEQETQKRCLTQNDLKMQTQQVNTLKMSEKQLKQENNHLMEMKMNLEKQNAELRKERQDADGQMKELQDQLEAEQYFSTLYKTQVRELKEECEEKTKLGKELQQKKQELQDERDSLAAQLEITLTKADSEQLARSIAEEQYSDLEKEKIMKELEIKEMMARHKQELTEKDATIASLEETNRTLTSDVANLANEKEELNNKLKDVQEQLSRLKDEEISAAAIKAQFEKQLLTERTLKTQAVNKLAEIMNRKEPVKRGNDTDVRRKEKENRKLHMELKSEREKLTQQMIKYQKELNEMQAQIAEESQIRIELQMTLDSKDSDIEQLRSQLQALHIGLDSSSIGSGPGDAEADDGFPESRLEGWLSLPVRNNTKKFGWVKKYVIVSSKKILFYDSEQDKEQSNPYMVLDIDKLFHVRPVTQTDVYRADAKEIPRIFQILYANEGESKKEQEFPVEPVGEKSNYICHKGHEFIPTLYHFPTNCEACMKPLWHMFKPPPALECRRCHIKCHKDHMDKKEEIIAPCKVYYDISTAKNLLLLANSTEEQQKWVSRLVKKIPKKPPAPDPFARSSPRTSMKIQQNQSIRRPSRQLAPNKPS

| pIC50 | SMILES |
| --- | --- |
| 7.30 | COCCN1Cc2cccc(C(=O)N3CCC4(CC3)CCN(c3ccc(-c5cn[nH]c5)c(OC)c3)C4=O)c2C1=O [Example 204, 2-[3-methoxy-4-(1H-pyrazol-4-yl)phenyl]-8-[2-(2-methoxyethyl)-3-oxo-2,3-dihydro-1H-isoindole-4-carbonyl]-2,8-diazaspiro[4.5]decan-1-one] |
| 7.27 | COc1ccc2c(c1)cc(C(=O)N1CCC3(CC1)CCN(c1ccc(-c4cn[nH]c4)c(OC)c1)C3=O)n2C [Example 156, 8-(5-methoxy-1-methyl-1H-indole-2-carbonyl)-2-[3-methoxy-4-(1H-pyrazol-4-yl)phenyl]-2,8-diazaspiro[4.5]decan-1-one] |
| 7.77 | COc1ccc(C(=O)N2CCC3(CC2)CCN(c2ccc(-c4cn[nH]c4)c(OC)c2)C3=O)c(Br)c1 [Example 161, 8-(2-bromo-4-methoxybenzoyl)-2-[3-methoxy-4-(1H-pyrazol-4-yl)phenyl]-2,8-diazaspiro[4.5]decan-1-one] |
| 7.42 | COc1cc(N2CCC3(CCN(C(=O)c4ccc(N)cc4Cl)CC3)C2=O)ccc1-c1cn[nH]c1 [Example 189, 8-(4-amino-2-chlorobenzol)-2-[3-methoxy-4-(1H-pyrazol-4-yl)phenyl]-2,8-diazaspiro[4.5]decan-1-one] |
| 7.57 | COc1cc(N2CCC3(CCN(C(=O)c4ccc(-c5nnc(C)o5)cc4)CC3)C2=O)ccc1-c1cn[nH]c1 [Example 162, 2-[3-methoxy-4-(1H-pyrazol-4-yl)phenyl]-8-[4-(5-methyl-1,3,4-oxadiazol-2-yl)benzoyl]-2,8-diazaspiro[4.5]decan-1-one] |
| 8.68 | COc1cc(N2CCC3(CCN(C(=O)c4cc(C(C)C)n5ncnc(O)c45)CC3)C2=O)ccc1-c1cn[nH]c1 [Example 200, 8-[4-hydroxy-7-(propan-2-yl)pyrrolo[2,1-f][1,2,4]triazine-5-carbonyl]-2-[3-methoxy-4-(1H-pyrazol-4-yl)phenyl]-2,8-diazaspiro[4.5]decan-1-one] |
| 9.40 | COc1cc(N2CCC3(CCN(C(=O)c4ccc(N5CCN(CC(C)(C)C)CC5)cc4)CC3)C2=O)ccc1-c1cn[nH]c1 [Example 241, 8-{4-[4-(2,2-dimethylpropyl)piperazin-1-yl]benzoyl}-2-[3-methoxy-4-(1H-pyrazol-4-yl)phenyl]-2,8-diazaspiro[4.5]decan-1-one] |
| 7.89 | COc1cc(N2CCC3(CCN(C(=O)c4ccc(CS(C)(=O)=O)cc4)CC3)C2=O)ccc1-c1cn[nH]c1 [Example 169, 8-[4-(methanesulfonylmethyl)benzoyl]-2-[3-methoxy-4-(1H-pyrazol-4-yl)phenyl]-2,8-diazaspiro[4.5]decan-1-one] |
| 8.26 | COc1cc(N2CCC3(CCN(C(=O)c4ccc(-c5ccncc5)cc4)CC3)C2=O)ccc1-c1cn[nH]c1 [Example 171, 2-[3-methoxy-4-(1H-pyrazol-4-yl)phenyl]-8-[4-(pyridin-4-yl)benzoyl]-2,8-diazaspiro[4.5]decan-1-one] |
| 8.92 | COc1cc(N2CCC3(CCN(C(=O)c4ccc(N5CCN(Cc6cccc(Cl)c6)CC5)cc4)CC3)C2=O)ccc1-c1cn[nH]c1 [Example 186, 8-(4-{4-[(3-chlorophenyl)methyl]piperazin-1-yl}benzoyl)-2-[3-methoxy-4-(1H-pyrazol-4-yl)phenyl]-2,8-diazaspiro[4.5]decan-1-one] |
| 8.35 | COc1cc(N2CCC3(CCN(C(=O)c4ccc5c(ccn5C)c4)CC3)C2=O)ccc1-c1cn[nH]c1 [Example 153, 2-[3-methoxy-4-(1H-pyrazol-4-yl)phenyl]-8-(1-methyl-1H-indole-5-carbonyl)-2,8-diazaspiro[4.5]decan-1-one] |
| 8.82 | COc1cc(N2CCC3(CCN(C(=O)c4ccc(N5CCN(Cc6csnn6)CC5)cc4)CC3)C2=O)ccc1-c1cn[nH]c1 [Example 224, 2-[3-methoxy-4-(1H-pyrazol-4-yl)phenyl]-8-(4-{4-[(1,2,3-thiadiazol-4-yl)methyl]piperazin-1-yl}benzoyl)-2,8-diazaspiro[4.5]decan-1-one] |
| 9.22 | COc1cc(N2CCC3(CCN(C(=O)c4ccc(N5CCN(CCc6ccccc6)CC5)cc4)CC3)C2=O)ccc1-c1cn[nH]c1 [Example 239, 2-[3-methoxy-4-(1H-pyrazol-4-yl)phenyl]-8-{4-[4-(2-phenylethyl)piperazin-1-yl]benzoyl}-2,8-diazaspiro[4.5]decan-1-one] |
| 9.15 | COc1cc(N2CCC3(CCN(C(=O)c4ccc(N5CCN(CC6CCOC6)CC5)cc4)CC3)C2=O)ccc1-c1cn[nH]c1 (centres unmarked) [Example 246, 2-[3-methoxy-4-(1H-pyrazol-4-yl)phenyl]-8-(4-{4-[(oxolan-3-yl)methyl]piperazin-1-yl}benzoyl)-2,8-diazaspiro[4.5]decan-1-one] |

Continued, molecule first:

| SMILES | pIC50 |
| --- | --- |
| CN1CCN(c2ccc(C(=O)N3CCC4(CC3)CCN(c3ccc(-c5ccncc5F)cc3)C4=O)cc2)CC1 [Example 33, 2-[4-(3-fluoropyridin-4-yl)phenyl]-8-[4-(4-methylpiperazin-1-yl)benzoyl]-2,8-diazaspiro[4.5]decan-1-one] | 8.89 |
| COc1cc(N2CCC3(CCN(C(=O)c4ccc5c(c4)OCO5)CC3)C2=O)ccc1-c1cn[nH]c1 [Example 69, 8-(2H-1,3-benzodioxole-5-carbonyl)-2-[3-methoxy-4-(1H-pyrazol-4-yl)phenyl]-2,8-diazaspiro[4.5]decan-1-one] | 7.03 |
| COc1c(F)cccc1C(=O)N1CCC2(CC1)CCN(c1ccc(-c3cn[nH]c3)cc1)C2=O [Example 8, 8-(3-Fluoro-2-methoxybenzoyl)-2-[4-(1H-pyrazol-4-yl)phenyl]-2,8-diazaspiro[4.5]decan-1-one] | 6.95 |
| COc1cc(N2CCC3(CCN(C(=O)c4ccc(C(C)C)cc4)CC3)C2=O)ccc1-c1cn[nH]c1 [Example 92, 2-[3-methoxy-4-(1H-pyrazol-4-yl)phenyl]-8-[4-(propan-2-yl)benzoyl]-2,8-diazaspiro[4.5]decan-1-one] | 7.92 |
| COc1cc(F)ccc1C(=O)N1CCC2(CC1)CCN(c1ccc(-c3cn[nH]c3)cc1)C2=O [Example 9, 8-(4-fluoro-2-methoxybenzoyl)-2-[4-(1H-pyrazol-4-yl)phenyl]-2,8-diazaspiro[4.5]decan-1-one] | 6.62 |
| COc1ccc(C(=O)N2CCC3(CC2)CCN(c2ccc(-c4cn[nH]c4)c(OC)n2)C3=O)cc1 [Example 39, 2-[6-methoxy-5-(1H-pyrazol-4-yl)pyridin-2-yl]-8-(4-methoxybenzoyl)-2,8-diazaspiro[4.5]decan-1-one] | 8.40 |
| COc1cc(N2CCC3(CCN(C(=O)c4ccc(N5CCN(C)CC5)cc4)CC3)C2=O)ccc1-c1cn[nH]c1 [Example 120, 2-[3-methoxy-4-(1H-pyrazol-4-yl)phenyl]-8-[4-(4-methylpiperazin-1-yl)benzoyl]-2,8-diazaspiro[4.5]decan-1-one] | 9.52 |
| COc1cc(N2CCC3(CCN(C(=O)c4ccc(-n5cccn5)cc4)CC3)C2=O)ccc1-c1cn[nH]c1 [Example 124, 2-[3-methoxy-4-(1H-pyrazol-4-yl)phenyl]-8-[4-(1H-pyrazol-1-yl)benzoyl]-2,8-diazaspiro[4.5]decan-1-one] | 7.21 |
| COc1cc(N2CCC3(CCN(C(=O)c4cc(Cl)no4)CC3)C2=O)ccc1-c1cn[nH]c1 [Example 109, 8-(3-chloro-1,2-oxazole-5-carbonyl)-2-[3-methoxy-4-(1H-pyrazol-4-yl)phenyl]-2,8-diazaspiro[4.5]decan-1-one] | 6.44 |
| COc1cc(N2CCC3(CCN(C(=O)c4ccc5cc6n(c5c4)C(C)CNC6=O)CC3)C2=O)ccc1-c1cn[nH]c1 (centres unmarked) [Example 150, 2-[3-methoxy-4-(1H-pyrazol-4-yl)phenyl]-8-{4-methyl-1-oxo-1H,2H,3H,4H-pyrazino[1,2-a]indole-7-carbonyl}-2,8-diazaspiro[4.5]decan-1-one] | 6.84 |
| COc1ccc(C(=O)N2CCC3(CC2)CCN(c2ccc(-c4cn[nH]c4)c(OC)c2)C3=O)cc1 [Example 13, 2-[3-methoxy-4-(1H-pyrazol-4-yl)phenyl]-8-(4-methoxybenzoyl)-2,8-diazaspiro[4.5]decan-1-one] | 8.10 |
| COc1cc(N2CCC3(CCN(C(=O)c4ccc(N5CCCCC5=O)cc4)CC3)C2=O)ccc1-c1cn[nH]c1 [Example 142, 2-[3-methoxy-4-(1H-pyrazol-4-yl)phenyl]-8-[4-(2-oxopiperidin-1-yl)benzoyl]-2,8-diazaspiro[4.5]decan-1-one] | 8.06 |
| COc1ccc(C(=O)N2CCC3(CC2)CCN(c2ccc(-c4cn[nH]c4)c(OC)c2)C3=O)nc1 [Example 16, 2-[3-methoxy-4-(1H-pyrazol-4-yl)phenyl]-8-(5-methoxypyridine-2-carbonyl)-2,8-diazaspiro[4.5]decan-1-one] | 7.89 |
| COc1cc(N2CCC3(CCN(C(=O)c4cc(C(F)(F)F)n(C)n4)CC3)C2=O)ccc1-c1cn[nH]c1 [Example 107, 2-[3-methoxy-4-(1H-pyrazol-4-yl)phenyl]-8-[1-methyl-S-(trifluoromethyl)-1H-pyrazole-3-carbonyl]-2,8-diazaspiro[4.5]decan-1-one] | 7.17 |
| COc1cc(F)c(C(=O)N2CCC3(CC2)CCN(c2ccc(-c4cn[nH]c4)c(OC)c2)C3=O)c(F)c1 [Example 28, 8-(2,6-difluoro-4-methoxybenzoyl)-2-[3-methoxy-4-(1H-pyrazol-4-yl)phenyl]-2,8-diazaspiro[4.5]decan-1-one] | 8.30 |
| COc1cc(N2CCC3(CCN(C(=O)c4ccc(Cl)cc4F)CC3)C2=O)ccc1-c1cn[nH]c1 [Example 75, 8-(4-chloro-2-fluorobenzoyl)-2-[3-methoxy-4-(1H-pyrazol-4-yl)phenyl]-2,8-diazaspiro[4.5]decan-1-one] | 7.30 |
| O=C(C1CC1)N1CCC2(CC1)CCN(c1ccc(-c3cn[nH]c3)cc1)C2=O [Example 7, 8-cyclopropanecarbonyl-2-[4-(1H-pyrazol-4-yl)phenyl]-2,8-diazaspiro[4.5]decan-1-one] | 6.06 |
| COc1cc(N2CCC3(CCN(C(=O)c4ccc(Cl)cn4)CC3)C2=O)ccc1-c1cn[nH]c1 [Example 123, 8-(5-chloropyridine-2-carbonyl)-2-[3-methoxy-4-(1H-pyrazol-4-yl)phenyl]-2,8-diazaspiro[4.5]decan-1-one] | 7.19 |
